The results in this text go back to paper PMC12102759 (Protein Science : A Publication of the Protein Society, 2025).

The test system of the assay is PABPC1 PABC. The class given is binding, human. The note with it: DMS-BM library, bait PABPC1 PABC, row aa = residue at this position; for DMS-derived PSSM value, position S15 / DMS-derived PSSM value, position S13: S = wild type; for DMS-derived PSSM value, position P6 / DMS-derived PSSM value, position P11 / DMS-derived PSSM value (averaged), position P11 / DMS-derived PSSM value, position P4: P = wild type.

The mark [1] stands for this setting: prey ATXN2, peptide TLNPNAKEFNPRSFSQ
[2] abbreviates: prey ATXN2, peptide TLNPNAKEFNPRSFSQ, K = wild type.
Setting [3] is: prey ATXN2, TLNPNAKEFNPRSF(averaged) over the two overlapping peptides, F = wild type.
Setting [4] is: prey ATXN2, peptide KSTLNPNAKEFNPRSF, F = wild type.
The mark [5] stands for this setting: prey ATXN2, TLNPNAKEFNPRSF(averaged) over the two overlapping peptides, A = wild type.
Where [6] appears, read: prey ATXN2, TLNPNAKEFNPRSF(averaged) over the two overlapping peptides, N = wild type.
Where [7] appears, read: prey ATXN2, peptide TLNPNAKEFNPRSFSQ, A = wild type.
The mark [8] stands for this setting: prey ATXN2, peptide KSTLNPNAKEFNPRSF, R = wild type.
[9] abbreviates: prey ATXN2, peptide KSTLNPNAKEFNPRSF
The mark [10] stands for this setting: prey ATXN2, TLNPNAKEFNPRSF(averaged) over the two overlapping peptides, K = wild type.
Setting [11] is: prey ATXN2, peptide TLNPNAKEFNPRSFSQ, R = wild type.
[12] abbreviates: prey ATXN2, peptide KSTLNPNAKEFNPRSF, L = wild type.
Setting [13] is: prey ATXN2, peptide TLNPNAKEFNPRSFSQ, E = wild type.
Setting [14] is: prey ATXN2, TLNPNAKEFNPRSF(averaged) over the two overlapping peptides.
[15] abbreviates: prey ATXN2, peptide TLNPNAKEFNPRSFSQ, N = wild type.
The mark [16] stands for this setting: prey ATXN2, peptide TLNPNAKEFNPRSFSQ, F = wild type.
Where [17] appears, read: prey ATXN2, peptide TLNPNAKEFNPRSFSQ, T = wild type.
Setting [18] is: prey ATXN2, peptide KSTLNPNAKEFNPRSF, N = wild type.

Consider “TLNPNAKEFNPRSFSQ S15V (TLNPNAKEFNPRSFVQ)”, for which, under setting [1], the “DMS-derived PSSM value, position S15” value was determined as 0.009732.
For “TLNPNAKEFNPRSF(averaged) R12F (TLNPNAKEFNPFSF)”, the “DMS-derived PSSM value (averaged), position R12” value (prey ATXN2, TLNPNAKEFNPRSF(averaged) over the two overlapping peptides, R = wild type) is 0.0319.
As for TLNPNAKEFNPRSFSQ K7M (TLNPNAMEFNPRSFSQ), the “DMS-derived PSSM value, position K7” value under setting [2] was found to be 0.0004181.
“TLNPNAKEFNPRSF(averaged) F9N (TLNPNAKENNPRSF)”: under setting [3], the “DMS-derived PSSM value (averaged), position F9” value is 0.04813.
For “KSTLNPNAKEFNPRSF F16M (KSTLNPNAKEFNPRSM)”, the “DMS-derived PSSM value, position F16” value under setting [4] is listed as 0.02916.
Consider “TLNPNAKEFNPRSF(averaged) A6D (TLNPNDKEFNPRSF)”, for which the “DMS-derived PSSM value (averaged), position A6” value under setting [5] is reported as 0.
Consider “TLNPNAKEFNPRSF(averaged) N3F (TLFPNAKEFNPRSF)”, for which the “DMS-derived PSSM value (averaged), position N3” value under setting [6] came to 0.
Turning to “TLNPNAKEFNPRSF(averaged) A6G (TLNPNGKEFNPRSF)”, the “DMS-derived PSSM value (averaged), position A6” value under setting [5] is 0.
Consider TLNPNAKEFNPRSFSQ A6E (TLNPNEKEFNPRSFSQ), for which the “DMS-derived PSSM value, position A6” value under setting [7] amounted to 0.
In the case of “KSTLNPNAKEFNPRSF R14K (KSTLNPNAKEFNPKSF)”, the “DMS-derived PSSM value, position R14” value under setting [8] is 0.002275.
For KSTLNPNAKEFNPRSF P6F (KSTLNFNAKEFNPRSF), under setting [9], the “DMS-derived PSSM value, position P6” value came to 0.
With “TLNPNAKEFNPRSFSQ P11A (TLNPNAKEFNARSFSQ)”, under setting [1], the “DMS-derived PSSM value, position P11” value came out at 0.0003099.
Regarding “TLNPNAKEFNPRSF(averaged) K7I (TLNPNAIEFNPRSF)”, the “DMS-derived PSSM value (averaged), position K7” value under setting [10] is given as 0.2038.
For “TLNPNAKEFNPRSF(averaged) A6H (TLNPNHKEFNPRSF)”, the “DMS-derived PSSM value (averaged), position A6” value under setting [5] was 0.
KSTLNPNAKEFNPRSF P6W (KSTLNWNAKEFNPRSF): the “DMS-derived PSSM value, position P6” value under setting [9] was 0.
For KSTLNPNAKEFNPRSF K9W (KSTLNPNAWEFNPRSF), where the note is “prey ATXN2, peptide KSTLNPNAKEFNPRSF, K = wild type”, the “DMS-derived PSSM value, position K9” value is 0.002107.
As to “KSTLNPNAKEFNPRSF F16G (KSTLNPNAKEFNPRSG)”, under setting [4], the “DMS-derived PSSM value, position F16” value came out at 0.
“TLNPNAKEFNPRSFSQ R12Y (TLNPNAKEFNPYSFSQ)”: the “DMS-derived PSSM value, position R12” value under setting [11] came to 0.05186.
Regarding KSTLNPNAKEFNPRSF L4Q (KSTQNPNAKEFNPRSF), the “DMS-derived PSSM value, position L4” value under setting [12] turned out to be 0.
For “KSTLNPNAKEFNPRSF E10K (KSTLNPNAKKFNPRSF)”, the “DMS-derived PSSM value, position E10” value (prey ATXN2, peptide KSTLNPNAKEFNPRSF, E = wild type) was 0.06317.
Take “TLNPNAKEFNPRSFSQ S15Q (TLNPNAKEFNPRSFQQ)”: the “DMS-derived PSSM value, position S15” value under setting [1] is 0.01622.
Take “TLNPNAKEFNPRSFSQ S13F (TLNPNAKEFNPRFFSQ)”: the “DMS-derived PSSM value, position S13” value under setting [1] amounted to 0.004247.
Take “TLNPNAKEFNPRSFSQ S13P (TLNPNAKEFNPRPFSQ)”: the “DMS-derived PSSM value, position S13” value under setting [1] stood at 0.0852.
As to TLNPNAKEFNPRSFSQ E8G (TLNPNAKGFNPRSFSQ), the “DMS-derived PSSM value, position E8” value under setting [13] is reported as 0.
For the substance “TLNPNAKEFNPRSF(averaged) K7N (TLNPNANEFNPRSF)”, under setting [10], the “DMS-derived PSSM value (averaged), position K7” value was determined as 0.09977.
With “TLNPNAKEFNPRSF(averaged) N10Y (TLNPNAKEFYPRSF)”, under setting [6], the “DMS-derived PSSM value (averaged), position N10” value is 0.1006.
In the case of “TLNPNAKEFNPRSF(averaged) A6E (TLNPNEKEFNPRSF)”, the “DMS-derived PSSM value (averaged), position A6” value under setting [5] was 0.
“TLNPNAKEFNPRSF(averaged) N3W (TLWPNAKEFNPRSF)”: under setting [6], the “DMS-derived PSSM value (averaged), position N3” value is listed as 0.
For the substance “TLNPNAKEFNPRSF(averaged) P11V (TLNPNAKEFNVRSF)”, the “DMS-derived PSSM value (averaged), position P11” value under setting [14] is given as 0.44.
On to TLNPNAKEFNPRSFSQ P4A (TLNANAKEFNPRSFSQ), for which the “DMS-derived PSSM value, position P4” value under setting [1] was found to be 0.02051.
As to TLNPNAKEFNPRSFSQ N3W (TLWPNAKEFNPRSFSQ), the “DMS-derived PSSM value, position N3” value under setting [15] was 0.
Regarding TLNPNAKEFNPRSFSQ P4N (TLNNNAKEFNPRSFSQ), the “DMS-derived PSSM value, position P4” value under setting [1] turned out to be 0.001049.
KSTLNPNAKEFNPRSF T3G (KSGLNPNAKEFNPRSF): the “DMS-derived PSSM value, position T3” value (prey ATXN2, peptide KSTLNPNAKEFNPRSF, T = wild type) is 0.0785.
Take “TLNPNAKEFNPRSF(averaged) K7Q (TLNPNAQEFNPRSF)”: the “DMS-derived PSSM value (averaged), position K7” value under setting [10] is reported as 0.01764.
For “TLNPNAKEFNPRSF(averaged) A6S (TLNPNSKEFNPRSF)”, under setting [5], the “DMS-derived PSSM value (averaged), position A6” value was 0.04153.
“TLNPNAKEFNPRSF(averaged) F14R (TLNPNAKEFNPRSR)”: the “DMS-derived PSSM value (averaged), position F14” value under setting [3] is reported as 0.0001414.
On to “KSTLNPNAKEFNPRSF R14W (KSTLNPNAKEFNPWSF)”, for which, under setting [8], the “DMS-derived PSSM value, position R14” value is on record as 0.1772.
Regarding TLNPNAKEFNPRSFSQ, the “DMS-derived PSSM value, position A6” value under setting [7] came to 0.3958. Moreover, the “DMS-derived PSSM value, position E8” value under setting [13] is listed as 0.1068. In addition, under setting [16], the “DMS-derived PSSM value, position F9” value was found to be 0.2105 and the “DMS-derived PSSM value, position F14” value was found to be 0.06109. Further, under setting [2], the “DMS-derived PSSM value, position K7” value is on record as 0.0126. Also, the “DMS-derived PSSM value, position L2” value (prey ATXN2, peptide TLNPNAKEFNPRSFSQ, L = wild type) was found to be 0.3849. Moreover, under setting [15], the “DMS-derived PSSM value, position N3” value was 0.2805; the “DMS-derived PSSM value, position N5” value turned out to be 0.009358; the “DMS-derived PSSM value, position N10” value stood at 0.0868. In addition, under setting [1], the “DMS-derived PSSM value, position P4” value came out at 0.1257; the “DMS-derived PSSM value, position P11” value is 0.07425; the “DMS-derived PSSM value, position S13” value worked out at 0.06246; the “DMS-derived PSSM value, position S15” value turned out to be 0.03177. Also, the “DMS-derived PSSM value, position R12” value under setting [11] worked out at 0.03868. Besides, under setting [17], the “DMS-derived PSSM value, position T1” value came to 0.03795.
“KSTLNPNAKEFNPRSF R14M (KSTLNPNAKEFNPMSF)”: the “DMS-derived PSSM value, position R14” value under setting [8] is listed as 0.00585.
Regarding “TLNPNAKEFNPRSFSQ F14R (TLNPNAKEFNPRSRSQ)”, the “DMS-derived PSSM value, position F14” value under setting [16] turned out to be 0.0002828.
With “KSTLNPNAKEFNPRSF N12K (KSTLNPNAKEFKPRSF)”, under setting [18], the “DMS-derived PSSM value, position N12” value is 0.009595.
In the case of “TLNPNAKEFNPRSF(averaged) E8N (TLNPNAKNFNPRSF)”, the “DMS-derived PSSM value (averaged), position E8” value (prey ATXN2, TLNPNAKEFNPRSF(averaged) over the two overlapping peptides, E = wild type) was 0.07264.
Turning to KSTLNPNAKEFNPRSF N7L (KSTLNPLAKEFNPRSF), under setting [18], the “DMS-derived PSSM value, position N7” value was 0.04259.
Take KSTLNPNAKEFNPRSF P6T (KSTLNTNAKEFNPRSF): the “DMS-derived PSSM value, position P6” value under setting [9] stood at 0.001755.
As for “TLNPNAKEFNPRSFSQ S13W (TLNPNAKEFNPRWFSQ)”, the “DMS-derived PSSM value, position S13” value under setting [1] amounted to 0.02517.
Regarding KSTLNPNAKEFNPRSF A8K (KSTLNPNKKEFNPRSF), under “prey ATXN2, peptide KSTLNPNAKEFNPRSF, A = wild type”, the “DMS-derived PSSM value, position A8” value stood at 0.
“TLNPNAKEFNPRSFSQ F14P (TLNPNAKEFNPRSPSQ)”: the “DMS-derived PSSM value, position F14” value under setting [16] was 0.06984.
Turning to TLNPNAKEFNPRSFSQ P4T (TLNTNAKEFNPRSFSQ), the “DMS-derived PSSM value, position P4” value under setting [1] stood at 0.02934.
In the case of TLNPNAKEFNPRSFSQ T1F (FLNPNAKEFNPRSFSQ), the “DMS-derived PSSM value, position T1” value under setting [17] was found to be 0.0001584.
In the case of “TLNPNAKEFNPRSFSQ R12H (TLNPNAKEFNPHSFSQ)”, under setting [11], the “DMS-derived PSSM value, position R12” value came out at 0.186.
For the substance “TLNPNAKEFNPRSFSQ S15M (TLNPNAKEFNPRSFMQ)”, the “DMS-derived PSSM value, position S15” value under setting [1] came out at 0.1078.
For the substance TLNPNAKEFNPRSFSQ T1P (PLNPNAKEFNPRSFSQ), the “DMS-derived PSSM value, position T1” value under setting [17] is given as 0.04902.
Take “TLNPNAKEFNPRSF(averaged) K7F (TLNPNAFEFNPRSF)”: the “DMS-derived PSSM value (averaged), position K7” value under setting [10] is on record as 0.04105.
Consider KSTLNPNAKEFNPRSF L4F (KSTFNPNAKEFNPRSF), for which the “DMS-derived PSSM value, position L4” value under setting [12] is reported as 0.
With “TLNPNAKEFNPRSF(averaged) P11D (TLNPNAKEFNDRSF)”, the “DMS-derived PSSM value (averaged), position P11” value under setting [14] came out at 0.002991.
